Laboratory results from patent US6858647B2, “Retinoid compounds suited for antibacterial applications” (Galderma Research & Development S.N.C., priority 2000, dated 2005).
≈ marks a conversion by molar mass, not a printed value. Where two headings read alike, the source gives them in different places.

How the values were obtained:
[1] = system: Staphylococcus aureus CIP52.1; experiment: Minimum inhibitory concentration (MIC), NCCLS dilution antimicrobial susceptibility test; assay type: cell-based; conditions: mean of at least three tests, read-out: MIC RESULTS MEAN
Source text: The bacterium Staphylococcus aureus CIP52.1 may be used in order to determine for each test compound the minimum inhibitory concentration for the bacterium, or MIC, expressed in μM.
The technique employed to determine the minimum inhibitory concentration or MIC was that described in the publication entitled “National committee for clinical laboratory standards” Vol. 13, No. 25, December 1993; Methods for dilution antimicrobial susceptibility tests for bacteria that grow aerobically-third edition, approved standard”. This minimum inhibitory concentration gives an indication as to the bacteriostatic effect of the test compounds, i.e., the capacity of these compounds to stop the proliferation of the bacterium.
Each compound of the invention was tested at least three times. The average of the test results was calculated, along with the standard deviation. The reference compound used was gentamycin.
The technique employed to determine the MIC values was the same as that described in Example 1.
(§1) Each compound of the invention and each comparative example taken from the Pierre Fabre patent application No. FR-2,736,548 was tested at least three times. The mean of the test results was calculated, along with the standard deviation. The reference compound used was gentamycin.

[2] = system: bacterium Staphylococcus aureus; experiment: Minimum bactericidal concentration (MBC); assay type: cell-based; conditions: Table IV, Example 2, mean of at least three tests, bactericidal activity (MBC)
Description: The technique employed to determine the minimum bactericidal concentration, or MBC, was that described in Bactéricidie, P. Courvalin et al., Editions Maloine, 1990, chapter 7, page 335.
This minimum bactericidal concentration provides an indication as to the bactericidal effect of the test compounds, i.e., the capacity of these compounds to kill the bacterium.
as §1

RAR receptor = experiment: Biological activity of RAR receptor antagonist / agonist type; conditions: stated in words, no test described
[3] = Table III, Example 2, comparison with retinaldehydes
[4] = Staphylococcus aureus, CIP52, Table II, Example 1, bacteriostatic effect
[5] = Staphylococcus aureus, CIP52, Table III, Example 2, comparison with retinaldehydes
[6] = Table II, Example 1, bacteriostatic effect

Row | Compound | MIC [1, 3] [µM] | MIC [2] [µM] | MIC [1, 4] [µM] | MIC [1, 5] [µM] | MIC ([2]; Staphylococcus aureus) [µM] | biological activity at RAR receptor (antagonist or agonist type) (RAR receptor) | MIC [1, 6] [µM]
1 | CC1=C(/C=C/C(C)=C/C=C/C(C)=C/C=O)C(C)(C)CCC1 [Comparative Example 1, all-trans-retinaldehyde, reference compound] | 11.64 (≈ 3.31 µg/mL) | 26.33 (≈ 7.49 µg/mL) |  |  |  |  | 
2 | CC1=C(/C=C/C(C)=C\C=C\C(C)=C\C=O)C(C)(C)CCC1 [Comparative Example 2, 9-cis-retinaldehyde, reference compound] | 11.52 (≈ 3.28 µg/mL) | 16.63 (≈ 4.73 µg/mL) |  |  |  |  | 
3 | COCOc1cccc(C=CC#Cc2ccc(C(=O)O)cc2)c1-c1ccc(C)cc1 [Compound 2, 4-[4-(6-Methoxymethoxy-4′-methylbiphenyl-2-yl)but-3-en-1-ynyl]benzoic acid] |  |  | 1.04 (≈ 0.414 µg/mL) | 2.45 (≈ 0.976 µg/mL) | 16.6 (≈ 6.63 µg/mL) | RAR receptor antagonist type | 
4 | CC(C)(C)C1=CC(=CC#Cc2ccc(C(=O)O)cc2)C=C(C(C)(C)C)C1=O [Compound 5, 4-[3-(3,5-Di-tert-butyl-4-oxocyclohexa-2,5-dienylidene)prop-1-ynyl]benzoic acid] |  |  | 1.25 (≈ 0.453 µg/mL) | 3.3 (≈ 1.2 µg/mL) | 13.2 (≈ 4.78 µg/mL) | RAR receptor agonist type | 
5 | COCCOCOc1cc2ccc(-c3ccc(C(=O)O)c(O)c3)cc2cc1C12CC3CC(CC(C3)C1)C2 [Compound 30, 4-[6-Methoxyethoxymethoxy-7-(1-adamantyl)-2-naphthyl] salicylic acid] |  |  | 3.33 (≈ 1.67 µg/mL) |  |  | RAR receptor antagonist type | 
6 | CC1=C(/C=C/C(C)=C/C=C/C(C)=C\C=O)C(C)(C)CCC1 [Comparative Example 3, 13-cis-retinaldehyde, reference compound] | 7.64 (≈ 2.17 µg/mL) | 15.97 (≈ 4.54 µg/mL) |  |  |  |  | 
7 | COc1c(O)cc(-c2ccc3cc(C(=O)O)ccc3c2)cc1C12CC3CC(CC(C3)C1)C2 [Compound 1, 6-[3-(1-Adamantyl)-4-methoxy-5-hydroxyphenyl]-2-naphthoic acid] |  |  | 1.04 (≈ 0.446 µg/mL) | 1.3 (≈ 0.557 µg/mL) | 12.5 (≈ 5.36 µg/mL) | RAR receptor agonist type | 
8 | CC1(C)CCC(C)(C)c2cc3sc(-c4ccc(C(=O)O)cc4)cc3cc21 [Compound 15, 4-(5,5,8,8-Tetramethyl-5,6,7,8-tetrahydronaphtho-[2,3-b]thiophen-2-yl)benzoic acid] |  |  | 2.5 (≈ 0.911 µg/mL) |  |  | RAR receptor agonist type | 
9 | CC1(C)CCC(C)(C)c2cc(-c3cc(-c4ccc(C(=O)O)cc4)ccc3-c3ccccc3)c(O)cc21 [Compound 14, 2′-(3-Hydroxy-5,5,8,8-tetramethyl-5,6,7,8-tetrahydronaphthalen-2-yl) [1,1′,4′,1″]terphenyl-4″-carboxylic acid] |  |  |  |  |  | RAR receptor agonist type | 2.08 (≈ 0.991 µg/mL)
10 | CC1(C)CCC(C)(C)c2cc(-c3cc(-c4ccc(C(=O)O)cc4O)ccc3-c3ccccc3)ccc21 [Compound 10, 2″-Hydroxy-2′-(5,5,8,8-tetramethyl-5,6,7,8-tetrahydronaphthalen-2-yl) [1,1′,4′,1″]terphenyl-4″-carboxylic acid] |  |  |  |  |  | RAR receptor agonist type | 1.66 (≈ 0.791 µg/mL)
11 | COc1ccc(C#Cc2cc(C(=O)O)cs2)cc1C12CC3CC(CC(C3)C1)C2 [Compound 7] |  |  |  |  |  | RAR receptor agonist type | 1.66 (≈ 0.652 µg/mL)
12 | CC1(C)CCSc2ccc(-c3cc(-c4ccc(C(=O)O)cc4)ccc3-c3ccccc3)cc21 [Compound 13, 2′-(4,4-Dimethylthiochroman-6-yl) [1,1′,4′,1″]terphenyl-4″-carboxylic acid] |  |  |  |  |  | RAR receptor agonist type | 2.08 (≈ 0.937 µg/mL)
13 | COCOc1ccccc1-c1ccc(-c2ccc(C(=O)O)cc2)cc1-c1ccc2c(c1)C(C)(C)CCC2(C)C [Compound 34, 2-Methoxymethoxy-2′-(5,5,8,8-tetramethyl-5,6,7,8-tetrahydronaphthalen-2-yl) [1,1′,4′1″]terphenyl-4″carboxylic acid] |  |  |  |  |  | RAR receptor antagonist type | 3.33 (≈ 1.73 µg/mL)
14 | gentamycin [reference compound] | 0.14 | 0.26 |  |  |  |  | 0.11
